This is an account of results in publication PMC12604490, “Dual immunomodulatory and antileishmanial potential of TLR7/8 agonists against Leishmania donovani” (Infection and Immunity, 2025).

Converted amounts (≈) assume the structure as drawn.

One series has as its system Leishmania infantum. The following applies: read-out: IC50 against Leishmania infantum; cited from earlier work.
A short description of series [1]: Cytotoxicity on HeLa cells (MTT, 48 h). Type of series: cell-based, human. The following applies: human, HeLa cells, MTT, 48 hours, mean ± SD; read-out: HeLa cell CC50. On the procedure:
(§1) HeLa cells (human cervical epithelial cell line) were grown in RPMI-1640 (HiMedia) with 10% FBS and cultured at 37°C (5% CO2). The cells were evaluated daily using an inverted microscope for any contamination and subcultured after reaching confluency ([21]).
(§2) The cytotoxicity studies were performed using an immune cell line (RAW 264.7 macrophage) and non-immune epithelial cell line (HeLa) by 3-(4,5-dimethylthiazol-2-yl)-2,5-diphenyltetrazolium bromide (MTT) assay. A total of 7,000–10,000 cells/well were supplemented with different concentrations (2–64 μg/mL) of TLR7/8 agonists and incubated for 48 hours. MTT (1 mg/mL) (Hi-Media) was added to each well and kept for 4 hours. The formazan crystals formed were dissolved in 100 µL of dimethyl ulfoxide (DMSO), and absorbance at 550 nm was recorded using a microreader. AmB, MF, and Resiquimod were used as reference drugs. The percentage of cytotoxicity was calculated as [(absorbance of treated well − absorbance of blank) / (absorbance of untreated well − absorbance of blank)] × 100. The CC50 value was calculated with SPSS software. The SI of TLR7/8 agonists was obtained by calculating the ratio of CC50 (RAW 264.7 macrophage and HeLa cells) and IC50 (antipromastigote and antiamastigotes) ([21], [23]).

In the next series the test system is HeLa cells. As to the kind of experiment: Cytotoxicity on HeLa cells (MTT, 48 h). Format: cell-based, human. The following applies: MTT, 48 hours, mean ± SD. The protocol:
as §1, §2

Series [2] in a line: Cytotoxicity on RAW 264.7 macrophages (MTT, 48 h). Type of series: cell-based. Particulars: mouse, RAW 264.7 macrophages, MTT, 48 hours, mean ± SD; read-out: RAW macrophage CC50. The protocol: To evaluate the cytotoxicity and antiamastigote assay, RAW 264.7 macrophages were cultured in Dulbecco’s modified Eagle medium (HiMedia, India), 10% heat-inactivated fetal bovine serum (FBS, Biowest) and cultured at 37°C (5% CO2). The macrophage cell growth was evaluated daily, and the cells were subcultured into a new flask containing fresh cell culture medium once they reached about 80%–90% confluency.
as §2

Series [3] relates to L. donovani promastigotes. As to the kind of experiment: Cell cycle progression in promastigotes (propidium iodide, flow cytometry). Format: cell-based, Leishmania donovani. Particulars: promastigotes incubated with the IC50 for 48 hours; untreated 12.0% ± 1.05%. On the procedure: For analysis of the promastigote cell cycle, 2 × 10^6 promastigotes/mL were briefly incubated with the IC50 of TLR7/8 agonists in a 24-well culture plate. After 48 hours, promastigotes were washed with PBS and fixed with 70% (vol/vol) chilled ethanol. After 1 hour of incubation, parasites were washed with PBS, and the pellet was incubated with 500 µL of DNase-free RNase (200 µg/mL) (Thermo Fisher) for 1 hour. Afterward, parasites were stained with PI dye (50 µg/mL), and the percentage of parasites in the sub-G0/G1 phase was analyzed using FACS Calibur flow cytometry ([20]).

In series [4] the test system is L. donovani promastigotes. As to the kind of experiment: In vitro antipromastigote activity (trypan blue count, 48 h). Particulars: Leishmania donovani, mean ± SD. Type of series: cell-based, Leishmania donovani MHOM/IN/80/DD8. The protocol:
M199 was added with 0.2% sodium bicarbonate and 10% heat-inactivated fetal bovine serum (FBS; Biowest, France) + antibiotics (gentamycin and streptomycin) by serial subcultures after every 48-72 hours by transferring 0.5-1.0 mL of culture supernatant in fresh medium and kept in a biological oxygen demand (BOD) incubator ([20]). […] The percentage growth inhibition was calculated using the following formulas: Percentage viability=No. of live cells in treated well/No. of live cells in blank well×100 Percentage growth inhibition=100 - percentage viability. The IC50 values were calculated using SPSS software, version 25 ([22]).

Another series has as its system RAW 264.7 macrophages. As to the kind of experiment: NO production in RAW 264.7 macrophages (Griess reagent). The following applies: RAW 264.7 macrophages, 48 hour treatment at the IC50 value, nitrite by Griess. Type of series: cell-based. On the procedure: After 24 hours, non-adherent cells were removed, and adherent cells were incubated with TLR7/8 agonist for 48 hours in the presence or absence of LPS (1 µg/mL) (Biosciences) to evaluate both unstimulated and LPS-stimulated macrophage responses. After 48 hours, the culture supernatant (100 µL) was collected and mixed with an equal volume of Griess reagent (1% sulfanilamide and 0.1% naphthlethylenediamine dihydrochloride in 2.5% phosphoric acid) (Sigma), and absorbance was measured in a microreader at 540 nm. Nitrite concentration was evaluated from a standard curve generated with sodium nitrite ([25]).

Series [5] has as its system intracellular L. donovani amastigotes. As to the kind of experiment: Antiamastigote activity in infected RAW 264.7 macrophages (Giemsa count, 48 h). Type of series: cell-based. Particulars: Leishmania donovani, RAW264.7, intracellular amastigotes in RAW 264.7 macrophages, mean ± SD. The protocol:
The macrophage cell growth was evaluated daily, and the cells were subcultured into a new flask containing fresh cell culture medium once they reached about 80%–90% confluency. […] Macrophages (2 × 10^4/mL) were plated on round coverslips placed in 24-well plates for 24 hours in a CO2 incubator (5% CO2) at 37°C. The coverslips were washed thrice with serum-free medium to remove the non-adherent cells. […] Infected macrophages were incubated with different concentrations of TLR7/8 agonists for 48 hours. After 48 hours, the coverslips were washed with phosphate-buffered saline (PBS), dried, fixed with chilled methanol, Giemsa-stained, and examined under a light microscope. A minimum of 200 macrophages were counted per coverslip to determine the number of amastigotes.

The subject of series [6] is Leishmania in peritoneal macrophages. Also on record: method as in PMID 30991111. Particulars: cited from earlier work.
A further series deals with L. infantum. Also on record: method as in PMID 33851916. The following applies: read-out: IC50 (antiamastigote) against L. infantum; cited from earlier work.
A further series concerns Leishmania major. Also on record: method as in PMID 33531168. The following applies: 80 µM concentration; cited from earlier work.

On to `CC(C)Cn1cnc2c(N)nc3ccccc3c21` [imiquimod], for which the IC50 with Leishmania infantum is 235 ± 10 nM.

On to `CCCCCCCCCCCCCCCCOP(=O)([O-])OCC[N+](C)(C)C` [Miltefosine, miltefosine, reference compound], for which the CC50 at 48 h in series [1] worked out at 32.1 ± 0.94 µg/mL (≈ 78.8 µM); in [2], 26 ± 1 µg/mL (≈ 63.8 µM). Also, in the series on HeLa cells, the “HeLa cell CC50” value turned out to be 20.1 ± 0.9 µg/mL. For the same compound, the “percentage of parasites in sub-G0/G1 phase” value in series [3] amounted to 52.3%. For the same compound, the IC50 in series [4] amounted to 2.43 ± 0.77 µg/mL (≈ 5.96 µM); in [5], 3.43 ± 0.77 µg/mL (≈ 8.42 µM). For the same compound, in the series with RAW 264.7 macrophages, the NO production stood at 21.9 ± 0.6 µM. The “IC50 against Leishmania in peritoneal macrophages” value in series [6] is on record as 1.81 µg/mL (≈ 4.44 µM).

As for `C[C@@H]1[C@H](O)[C@@H](C)/C=C/C=C/C=C/C=C/C=C/C=C/C=C/[C@H](O[C@@H]2O[C@H](C)[C@@H](O)[C@H](N)[C@@H]2O)C[C@@H]2O[C@](O)(C[C@@H](O)C[C@@H](O)[C@H](O)CC[C@@H](O)C[C@@H](O)CC(=O)O[C@H]1C)C[C@H](O)[C@H]2C(=O)O` [Amphotericin B, amphotericin B, reference compound], the IC50 with L. infantum is 110 ± 30 nM; in [4], 0.13 ± 0.06 µg/mL (≈ 0.141 µM); in [5], 0.2 ± 0.1 µg/mL (≈ 0.216 µM). Also, the CC50 at 48 h amounted to 20.2 ± 0.72 µg/mL (≈ 21.8 µM) in series [1] and 19.1 ± 1 µg/mL (≈ 20.7 µM) in series [2]. For the same compound, the “HeLa cell CC50” value in the series on HeLa cells came out at 16.18 ± 0.7 µg/mL. Besides, the “percentage of parasites in sub-G0/G1 phase” value in series [3] worked out at 57.0%. Moreover, the NO production with RAW 264.7 macrophages is given as 20.3 ± 0.8 µM.

Consider `COc1cc(/C=C/C(=O)CC(=O)/C=C/c2ccc(O)c(OC)c2)ccc1O` [curcumin], for which the cell death in the series with Leishmania major was 82.5%.
